Results reported in patent US9567347B2, “Use of small molecule inhibitors targeting the interaction between RAC GTPase and p67(phox)” (CHILDREN'S HOSPITAL MEDICAL CENTER, priority 2012, dated 2017).
Positions count from the first letter of the chain named. Entries after “also recorded” stand apart in the source; their conditions may differ.

What was measured:
p67R38Q = target: T1, p67R38Q (Homo sapiens, UniProt P19878, R38Q); experiment: microscale thermophoresis binding to p67phox R38Q mutant; conditions: residue critical for Rac1-GTP binding
T1 construct: using the pET30-HIS p67(1-212) plasmid; His; made in house; host or cells: E. coli BL21(DE3)
T1 sequence (P19878 1-212 R38Q): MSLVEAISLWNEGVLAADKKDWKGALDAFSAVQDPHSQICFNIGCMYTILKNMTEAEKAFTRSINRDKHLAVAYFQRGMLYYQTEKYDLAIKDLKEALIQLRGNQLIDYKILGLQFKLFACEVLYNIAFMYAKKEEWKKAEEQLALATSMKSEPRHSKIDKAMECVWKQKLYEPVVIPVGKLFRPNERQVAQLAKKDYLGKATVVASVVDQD
Procedure: (§1) The p67^phox protein was expressed in BL21(DE3) bacteria (Stratagene) using the pET30-HIS p67(1-212) plasmid. Protein was purified using the QIAexpress Ni-NTA kit (Qiagen) or the GST Bind Resin Chromatography Kit (Novagen) for RacV12 and RacWT proteins. Mutagenesis was carried out using the Quick Change Lightening Site Directed Mutagenesis Kit (Stratagene).
(§2) Proteins were labeled for microscale thermophoresis using the Monolith NT Protein Labeling Kit Red (Nano Temper Technologies) as recommended by the manufacturer. Binding reactions were carried out using the Monolith NT. 115 (Nano Temper Technologies). Binding data was analyzed using Graphpad Prizm to estimate Kd values. The arbitrary fluorescence value from the thermophoresis plots for the smallest compound titration was subtracted from every other data point (Delta depletion) prior to normalization to a Vmax of 100. In thermophoresis plots where there was no binding, a curve could not be fit and therefore no Vmax could be assigned. In these instances the highest delta depletion value was set to 100 and all data were normalized accordingly.
(§3) Next, to perform a competition binding, p67^phox protein was first incubated with either 5 μM Phox-I1 or an equal volume of vehicle control for 15 min prior to titration of purified Rac1V12 protein. […]

[1] = target: T2, p67^phox binding to Rac1V12 (Homo sapiens, UniProt P19878); experiment: competition binding of p67phox with Rac1V12 by microscale thermophoresis; conditions: 5 μM, 15 min prior to titration of Rac1V12
T2 construct: using the pET30-HIS p67(1-212) plasmid; His; made in house; host or cells: E. coli BL21(DE3) for p67phox
T2 sequence (P19878 1-212): T1 sequence (P19878 1-212 R38Q) with Q38R
Procedure: as §2
Next, to perform a competition binding, p67^phox protein was first incubated with either 5 μM Phox-I1 or an equal volume of vehicle control for 15 min prior to titration of purified Rac1V12 protein. […] Thus, Phox-I1 binding to p67^phox is specific and not due to nonspecific effects, such as aggregation.

Rac1V12 protein = target: T3, Rac1V12 protein (Homo sapiens, UniProt P63000, G12V); experiment: microscale thermophoresis binding to Rac1V12; conditions: various concentrations
T3 construct: GST; made in house
Procedure: as §1, §2, §3

[2] = system: glucose oxidase-produced ROS; experiment: luminol chemiluminescence assay of glucose oxidase-generated ROS; type: cell-based, human
Procedure: (§4) Human neutrophils (2×10^5) were stimulated in HBSS supplemented with 0.1% BSA, 1 mM Ca2+, 1 mM Mg2+ and with fMLP (10 μM), PMA (300 nM) or glucose oxidase (200 mU/ml) for 30 min in the presence of 10 μM [8-amino-5-chloro-7-phenylpyrido[3,4-d]pyridazine-1,4(2H,3H)dione] (L012).
(§5) Chemiluminescence was measured using GloMax®-96 Microplate Luminometer (Promega) (Tarpey et al., (2004) Am J Physiol Regul Integr Comp Physiol 286: R431-R444, hereby incorporated by reference in its entirety). The generation of […] by the xanthine/xanthine oxidase was performed in PBS supplemented with xanthine oxidase (0.004 U), HRP (0.005 U·mL^−1) and L012, following the protocol described in Wind et al., (2010) Br J Pharmacol. 161, 885-898, hereby incorporated by reference in its entirety. The reaction was started by the addition of xanthine (0.5 mM).

[3] = system: PMA-induced ROS production in human neutrophils; experiment: luminol chemiluminescence assay of PMA induced ROS production; type: cell-based
Procedure: as §4, §5

COc1ccc2c(c1)C1C=C(c3ccccc3)NN1C(c1cccc([N+](=O)[O-])c1)O2 (centres unmarked) [Phox-I1]
binding to p67^phox R38 mutant (p67R38Q): disrupted the binding ability | competition with Rac1V12 for p67^phox [1]: disruption of p67^phox binding to Rac1V12 | binding to Rac1V12 (Rac1V12 protein): unable to bind; also recorded: no detectable binding | effect on glucose oxidase-produced ROS [2]: did not affect | effect on PMA-induced ROS production [3]: did not affect
